From patent publication US8962530B2, “Inflammatory bowel disease therapies” (Regents of the University of Colorado, priority 2007, dated 2015)

Legend:
TNFα mRNA = assay: TNFα expression in colonic mucosal scrapings by real-time PCR, TNBS-colitis model; format: in vivo; settings: TNBS-colitis mice; 40 mg/kg i.p. on day minus 1, day 0, day 1; day three; compared to non-treated TNBS-colitis mice; p<0.01
Source text: The effectiveness of compounds and methods of the present invention on intestinal barrier protection and treatment of inflammatory bowel disease (IBD) in TNBS (2,4,6-trinitrobenzene sulfonic acid)-induced colitis, an established animal model of inflammatory bowel disease, was examined. TNBS-induced colitis was induced in mice using a modification of techniques previously described. (See Morris et al (1989) Gastroenterology 96:795-803; Boirivant et al (1998) J Exp Med 188:1929-1939; Karhausen et al (2004) J Clin Invest 114:1098-1106.)
Mice were shaved on the abdomen (causing total depletion of hair and microlesions) and were then sensitized to subsequent treatment by epicutaneous application of 1% TNBS (Sigma-Aldrich) in 100% ethanol on day minus 7. Seven days later, on day 0, animals were sedated with a 2.5% Tribromoethanol solution in phosphate-buffered saline (14 μl/g body weight), followed by intrarectal administration of a 2.5% TNBS solution in 50% ethanol (5 μl/g body weight). […]
Amplification cSycle parameters were as follows: 3 minutes at 95° C.; 40 cycles of 45 seconds at 95° C., 30 seconds at 58° C., 30 seconds at 72° C.; followed by repetitive melting cycles to establish amplification product specificity. Comparison of gene expression in a semi-quantitative manner was performed based on the mathematical model of Pfaffl. […]

TNBS-induced colitis = assay: Weight loss in TNBS-colitis model; format: in vivo; settings: TNBS-colitis mice; for initial body weight loss: compared to vehicle-control treated TNBS-colitis animals; for average body weight (of initial body weight) at day 3: vehicle-treated approximately 92%
Source text: The effectiveness of compounds and methods of the present invention on intestinal barrier protection and treatment of inflammatory bowel disease (IBD) in TNBS (2,4,6-trinitrobenzene sulfonic acid)-induced colitis, an established animal model of inflammatory bowel disease, was examined. TNBS-induced colitis was induced in mice using a modification of techniques previously described. (See Morris et al (1989) Gastroenterology 96:795-803; Boirivant et al (1998) J Exp Med 188:1929-1939; Karhausen et al (2004) J Clin Invest 114:1098-1106.) Mice were shaved on the abdomen (causing total depletion of hair and microlesions) and were then sensitized to subsequent treatment by epicutaneous application of 1% TNBS (Sigma-Aldrich) in 100% ethanol on day minus 7. Seven days later, on day 0, animals were sedated with a 2.5% Tribromoethanol solution in phosphate-buffered saline (14 μl/g body weight), followed by intrarectal administration of a 2.5% TNBS solution in 50% ethanol (5 μl/g body weight). Administration of the 2.5% TNBS solution was carried out using an epidural catheter ([…] Plus Epidural Catheter, Arrow International), which was inserted approximately 6 cm ab ano followed by release of the TNBS solution. To ensure the continuance of the TNBS solution in the colon, mice were suspended in a vertical position for at least 5 minutes following administration. Vehicle control animals received a corresponding volume of 50% ethanol solution alone. Unless otherwise indicated, compounds of the invention were administered to animals intraperitoneally (i.p.) as a solution. Animals were dosed with compound (40 mg/kg/day or 20 mg/kg/day) on day minus 1, day 0, and day 1, or exclusively on day 0 and day 1, by i.p. injection. On day 0, TNBS treatment was performed on animals 4 hours after injection of compound. The effect of methods and compounds of the present invention on weight loss associated with inflammatory bowel disease was studied using an established animal model of colitis (described above in Example 1). Monitoring weight loss is a reliable method to assess TNBS-colitis severity in this animal model, as previously described. (See Neurath et al (2000) Int Rev Immunol 19:51-62.) Animals were administered Compound A (20 mg/kg or 40 mg/kg, i.p.) or vehicle control on day minus 1, day 0, and day 1. TNBS-colitis was induced in mice on day 0, as described above in Example 1. Body weight of the mice was monitored following induction of TNBS-colitis. […] Animal body weight was monitored each day for 3 days.

[1] = 20 mg/kg i.p. on day minus 1, day 0, day 1
[2] = 40 mg/kg i.p. on day minus 1, day 0, day 1

## O=C(O)CNC(=O)c1ncc2cc(Sc3ccccc3)ccc2c1O [Compound A, [(4-Hydroxy-7-phenylsulfanyl-isoquinoline-3-carbonyl)-amino]-acetic acid]
TNFα mRNA
  TNFα mRNA levels in colonic mucosal scrapings: significant decrease
TNBS-induced colitis; [1]
  initial body weight loss: reduction in the extent of initial body weight loss
  average body weight (of initial body weight) at day 3: approximately 95%
TNBS-induced colitis; 20 mg/kg or 40 mg/kg i.p. on day minus 1, day 0, day 1, compared to vehicle/control-treated TNBS-colitis animals
  body weight gain (recovery from weight loss) by day 3: greater increase in body weight gain
TNBS-induced colitis; [2]
  initial body weight loss: reduction in the extent of initial body weight loss
  average body weight (of initial body weight) at day 3: ~97%
